{
  "source": "patent US6638974B1",
  "about": "“Ascorbyl esters for the treatment of cancer” (University of South Florida, priority 1999, dated 2003)",
  "key": {"[1]": {"system": "PANC-1 cells", "test": "MTT cell growth and viability assay, PANC-1", "assay_type": "cell-based, human", "details": "50-175 μM Asc-S, 24 hours, MEM+10% FBS or serum free MEM+15 nM IGF-1", "protocol": "PANC-1 Cell Culture: The human pancreatic ductal adenocarcinoma cell line PANC-1 was obtained from the American Type Culture Collection (Rockville, Md.). PANC-1 cells were cultured for 24 hours in Minimum Essential Medium (MEM) (Whitaker M A Bioproducts, Walkersville, Md.) supplemented with 10% fetal bovine serum (FBS) (Hyclone Laboratories, Logan, Utah) or serum free MEM+15 nM human recombinant IGF-1, penicillin (50 U/ml), streptomycin (50 μg/ml) and 1.0 mM L-glutamine.\nCell Growth and Vitality: The effect of Asc-S on PANC-1 and PC-1 cell growth and viability was evaluated by 3-(4,5-dimethylthiazol-2yl)-2,5-diphenyl-tetrazoliumbromide (MTT) (Sigma Chemical Co., St. Louis, Md.) assay and the details of the procedure are as described earlier (Naidu et al., 1993a) PANC-1 cells were seeded at 2.5×10^4 viable cells well in 0.1 ml MEM supplemented with 10% FBS or serum free MEM with 15 nM human recombinant IGF-1 in 96 multiwell tissue culture plates. The following day when the cells were nearly confluent, the medium was replaced with fresh medium and 50, 75, 100, 125, 150, 175 and 200 μM Asc-S were added and incubated in a CO2 incubator at 37° C. for 24 hours with respective untreated controls."}, "[2]": {"system": "PDGF-R", "test": "PDGF-R expression by Western blot, PANC-1", "assay_type": "cell-based, human", "details": "150 μM, 24 hours"}, "[3]": {"system": "mouse glioma cells (G-26)", "test": "Intracerebral G-26 glioma in C57BL/6 mice, survival", "assay_type": "in vivo", "details": "C57BL/6 mice with intracerebral G-26 gliomas, oral 250 mg/Kg daily; controls 27±2 days", "protocol": "In vivo administration of Asc-S (250 mg/Kg) on intracerebral gliomas in C57BL/6 mice: The C57BL/6 mice were implanted with mouse glioma cells (G-26) by stereotaxic intracerebral implantation. […] (FIGS. 11A and B).\nThe body weight profiles of those mice during the experiments are shown in (FIG. 11B). The median survival observed in this study is statistically significant (P<0.05).\nIn vivo administration of Asc-S (250 mg/Kg) on intracerebral gliomas in C57BL/6 mice. The C57BL/6 mice were implanted with mouse glioma cells (G-26) by stereotaxic intracerebral implantation.\nThe body weight profiles of those mice during the experiments are shown in (FIG. 17B). The median survival observed in this study is statistically significant (P<0.05)."}, "[4]": {"system": "OVCAR-3 and PANC-1 s.c. tumors", "test": "s.c. OVCAR-3 and PANC-1 tumors in BALB/c nude mice", "assay_type": "in vivo, mouse", "details": "100 mg/Kg s.c. daily for two weeks", "protocol": "The experimental approach is to test effect of Ascorbyl stearate (Asc-S) on the tumorigenicity of ovarian and pancreatic tumor cells. Procedures involve culturing OVCOR-3 (ovarian cancer cells) and PANC-1 (pancreatic cancer cells). When confluent, cells were trypsinized, washed and resuspended in sterile phosphate buffered solution ([…]) in a volume of 0.1 ml and injected s.c. above the hind leg of the mice. Two groups each for OVCOR-3 and PANC-1 tumor cells were established.\nAsc-S is lipophilic compound. Asc-S was dissolved in a small volume of ethyl alcohol and then reconstituted in sterile normal saline. The final concentration of ethyl alcohol was ˜5%. At that concentration ethyl alcohol would not have any deleterious effect. […] The controls received […] of a mixture of 0.5:10 ethyl alcohol and sterile normal saline.\nGroup 1 is made up of OVCAR-3 cells plus Vehicle. A mixture of 0.5:10 of ethyl alcohol and normal saline was used as the vehicle. Group 2 is made up of OVCAR-3 cells plus Asc-S at a concentration of 100 mg/Kg was administered subcutaneously at the vicinity of the s.c. tumor one week prior to treatment with Asc-S. The Asc-S was distributed in a small volume of ethyl alcohol and then reconstituted into normal saline. […]\nFor the preliminary studies, six mice per group were used. […] The s.c. tumors were isolated, tumor sizes were measured and processed for pathological evaluation. […]"}, "[5]": {"system": "T98G cells", "test": "Cell multiplication cycle, T98G", "assay_type": "cell-based, human", "details": "50-175 μM Asc-S", "description": "Human glioma cell proliferation and tumorigrenicity are under autocrine control of the insulin like growth factor 1 (IGF-1) and its receptor (IGF-1R). Although it has been known for quite some time that ascorbic acid and its derivatives have anti-proliferative effects on various tumor cells, the precise mechanism of action is unknown. This study presents data on Ascorbyl Stearate (Asc-S) […] glioma (T98G) cell proliferation and transformation. Asc-S inhibited 10% fetal bovine serum (FBS) and human recombinant IGR-1 ([…]) dependent T98G cell proliferation in a dose dependent manner. […] The inhibition of IGF-1 Rs was also time and dose dependent."}, "[6]": {"details": "mice; cited from earlier work"}},
  "data": [
    {"smiles": "CCCCCCCCCCCCCCCCCC(=O)OC[C@H](O)[C@H]1OC(=O)C(O)=C1O", "note": "[Asc-S, Ascorbyl stearate]", "values": [
      {"measurement": "PANC-1 cell proliferation (MTT assay)", "setting": "[1]", "value": "inhibited cell proliferation in a dose dependent manner"},
      {"measurement": "PDGF-R expression, PANC-1", "setting": "[2]", "value": "did not affect"},
      {"measurement": "median survival", "setting": "[3]", "value": "43 ± 2", "unit": "days"},
      {"measurement": "apoptotic cells in s.c. tumors (pathological evaluation)", "setting": "[4]", "value": "predominantly higher percentage of apoptotic cells"},
      {"measurement": "decrease in the size of the tumors compared to untreated controls", "setting": "[4]", "value": 70, "unit": "%"},
      {"measurement": "cell multiplication cycle, T98G", "setting": "[5]", "value": "arrest of cell multiplication cycle in G1/Go phase"},
      {"measurement": "LD50", "setting": "[6]", "value": 25000, "unit": "mg/kg"}
    ]}
  ]
}
